{"source": "paper PMC4312132", "about": "“Phenylalanine in the Pore of the Erwinia Ligand-Gated Ion Channel Modulates Picrotoxinin Potency but Not Receptor Function” (Biochemistry, 2014)", "assay_type_in_all_cases": "cell-based, Erwinia chrysanthemii", "key": {"Q2′N ELIC [1]": {"target": "T1, Q2′N ELIC (Dickeya chrysanthemi, UniProt P0C7B7, Q232N)", "T1 construct": "expressed in transfected cells; host or cells: Xenopus laevis oocytes (cRNA injection)", "experiment": "GABA activation of Q2′N ELIC, two-electrode voltage clamp in Xenopus oocytes"}, "T6′A ELIC [2]": {"target": "T2, T6′A ELIC (Dickeya chrysanthemi, UniProt P0C7B7, T236A)", "T2 construct": "expressed in transfected cells; host or cells: Xenopus laevis oocytes (cRNA injection)", "experiment": "GABA activation of T6′A ELIC, two-electrode voltage clamp in Xenopus oocytes"}, "T6′S ELIC [3]": {"target": "T3, T6′S ELIC (Dickeya chrysanthemi, UniProt P0C7B7, T236S)", "T3 construct": "expressed in transfected cells; host or cells: Xenopus laevis oocytes (cRNA injection)", "experiment": "GABA activation of T6′S ELIC, two-electrode voltage clamp in Xenopus oocytes"}, "F16′A ELIC [4]": {"target": "T4, F16′A ELIC (Dickeya chrysanthemi, UniProt P0C7B7, F246A)", "T4 construct": "expressed in transfected cells; host or cells: Xenopus laevis oocytes (cRNA injection)", "experiment": "GABA activation of F16′A ELIC, two-electrode voltage clamp in Xenopus oocytes", "description": "(§1) Xenopus laevis oocyte-positive females were purchased from NASCO (Fort Atkinson, WI) and maintained according to standard methods. Harvested stage V and VI Xenopus oocytes were washed in four changes of Ca^2+-free ND96 [96 mM NaCl, 2 mM KCl, 1 mM MgCl2, and 5 mM HEPES (pH 7.5)], defolliculated in 1.5 mg mL^–1 collagenase type 1A for approximately 2 h, washed again in four changes of ND96, and stored in ND96 at 16 °C containing 2.5 mM sodium pyruvate, […] gentamycin, and 0.7 mM theophylline.\n(§2) ELIC (GenBank accession number ADN00343.1) was kindly provided by C. Ulens. For expression in Xenopus oocytes, it was cloned into pGEMHE with the signal sequence of the human α7 nACh receptor. […] Stage V and VI oocytes were injected with 20 ng of cRNA, and currents were recorded 1–3 days postinjection.\n(§3) Using two-electrode voltage clamp, Xenopus oocytes were clamped at −60 mV using an OC-725 amplifier (Warner Instruments, Hamden, CT), Digidata 1322A, and the Strathclyde Electrophysiology Software Package (Department of Physiology and Pharmacology, University of Strathclyde, Glasgow, U.K.). Currents were recorded at 5 kHz and filtered at a frequency of 1 kHz. […] Inhibition by test compounds was measured at the GABA EC50 for each mutant. […]"}, "F16′D ELIC [5]": {"target": "T5, F16′D ELIC (Dickeya chrysanthemi, UniProt P0C7B7, F246D)", "T5 construct": "expressed in transfected cells; host or cells: Xenopus laevis oocytes (cRNA injection)", "experiment": "GABA activation of F16′D ELIC, two-electrode voltage clamp in Xenopus oocytes"}, "F16′E ELIC [6]": {"target": "T6, F16′E ELIC (Dickeya chrysanthemi, UniProt P0C7B7, F246E)", "T6 construct": "expressed in transfected cells; host or cells: Xenopus laevis oocytes (cRNA injection)", "experiment": "GABA activation of F16′E ELIC, two-electrode voltage clamp in Xenopus oocytes", "description": "as §1, §2, §3"}, "F16′Q ELIC": {"target": "T7, F16′Q ELIC (Dickeya chrysanthemi, UniProt P0C7B7, F246Q)", "T7 construct": "expressed in transfected cells; host or cells: Xenopus laevis oocytes (cRNA injection)", "experiment": "GABA activation of F16′Q ELIC, two-electrode voltage clamp in Xenopus oocytes"}, "F16′L ELIC": {"target": "T8, F16′L ELIC (Dickeya chrysanthemi, UniProt P0C7B7, F246L)", "T8 construct": "expressed in transfected cells; host or cells: Xenopus laevis oocytes (cRNA injection)", "experiment": "GABA activation of F16′L ELIC, two-electrode voltage clamp in Xenopus oocytes", "description": "as §1, §2, §3"}, "F16′S ELIC [7]": {"target": "T9, F16′S ELIC (Dickeya chrysanthemi, UniProt P0C7B7, F246S)", "T9 construct": "expressed in transfected cells; host or cells: Xenopus laevis oocytes (cRNA injection)", "experiment": "GABA activation of F16′S ELIC, two-electrode voltage clamp in Xenopus oocytes"}, "F16′T ELIC [8]": {"target": "T10, F16′T ELIC (Dickeya chrysanthemi, UniProt P0C7B7, F246T)", "T10 construct": "expressed in transfected cells; host or cells: Xenopus laevis oocytes (cRNA injection)", "experiment": "GABA activation of F16′T ELIC, two-electrode voltage clamp in Xenopus oocytes"}, "F16′W ELIC [9]": {"target": "T11, F16′W ELIC (Dickeya chrysanthemi, UniProt P0C7B7, F246W)", "T11 construct": "expressed in transfected cells; host or cells: Xenopus laevis oocytes (cRNA injection)", "experiment": "GABA activation of F16′W ELIC, two-electrode voltage clamp in Xenopus oocytes"}, "F16′Y ELIC": {"target": "T12, F16′Y ELIC (Dickeya chrysanthemi, UniProt P0C7B7, F246Y)", "T12 construct": "expressed in transfected cells; host or cells: Xenopus laevis oocytes (cRNA injection)", "experiment": "GABA activation of F16′Y ELIC, two-electrode voltage clamp in Xenopus oocytes"}, "F16′S/T6′S ELIC": {"target": "T13, F16′S/T6′S ELIC (Dickeya chrysanthemi, UniProt P0C7B7, F246S/T236S)", "T13 construct": "expressed in transfected cells; host or cells: Xenopus laevis oocytes (cRNA injection)", "experiment": "GABA activation of F16′S/T6′S ELIC, two-electrode voltage clamp in Xenopus oocytes"}, "Q2′N ELIC [10]": {"target": "T1, Q2′N ELIC", "experiment": "Inhibition of GABA-elicited currents of Q2′N ELIC in Xenopus oocytes"}, "T6′A ELIC [11]": {"target": "T2, T6′A ELIC", "experiment": "Inhibition of GABA-elicited currents of T6′A ELIC in Xenopus oocytes", "description": "as §1, §2, §3"}, "T6′S ELIC [12]": {"target": "T3, T6′S ELIC", "experiment": "Inhibition of GABA-elicited currents of T6′S ELIC in Xenopus oocytes"}, "F16′A ELIC [13]": {"target": "T4, F16′A ELIC", "experiment": "Inhibition of GABA-elicited currents of F16′A ELIC in Xenopus oocytes", "settings": "inhibition measured at the GABA EC50"}, "F16′D ELIC [14]": {"target": "T5, F16′D ELIC", "experiment": "Inhibition of GABA-elicited currents of F16′D ELIC in Xenopus oocytes", "description": "as §1, §2, §3"}, "F16′W ELIC [15]": {"target": "T11, F16′W ELIC", "experiment": "Inhibition of GABA-elicited currents of F16′W ELIC in Xenopus oocytes"}, "F16′S ELIC [16]": {"target": "T9, F16′S ELIC", "experiment": "Inhibition of GABA-elicited currents of F16′S ELIC in Xenopus oocytes"}, "F16′T ELIC [17]": {"target": "T10, F16′T ELIC", "experiment": "Inhibition of GABA-elicited currents of F16′T ELIC in Xenopus oocytes"}, "F16′E ELIC [18]": {"target": "T6, F16′E ELIC", "experiment": "Inhibition of GABA-elicited currents of F16′E ELIC in Xenopus oocytes"}, "T6′S/F16′S ELIC": {"target": "T14, T6′S/F16′S ELIC (Dickeya chrysanthemi, UniProt P0C7B7, F246S/T236S)", "T14 construct": "expressed in transfected cells; host or cells: Xenopus laevis oocytes injected with cRNA transcribed from pGEMHE", "T14 sequence (P0C7B7 1-321 T236S/F246S)": "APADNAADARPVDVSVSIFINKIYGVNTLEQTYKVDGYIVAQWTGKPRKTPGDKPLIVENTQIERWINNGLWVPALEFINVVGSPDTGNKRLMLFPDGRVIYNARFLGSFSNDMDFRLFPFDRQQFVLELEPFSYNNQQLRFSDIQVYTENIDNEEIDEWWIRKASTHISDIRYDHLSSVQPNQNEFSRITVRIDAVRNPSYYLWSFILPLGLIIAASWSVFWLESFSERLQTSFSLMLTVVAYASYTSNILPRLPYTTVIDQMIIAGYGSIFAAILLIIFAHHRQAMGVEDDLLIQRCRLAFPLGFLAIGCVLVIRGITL", "experiment": "Inhibition of GABA-elicited currents of T6′S/F16′S ELIC in Xenopus oocytes", "settings": "inhibition measured at the GABA EC50"}}, "note": "Where two headings read alike, the source gives them in different places."}
{"compound": "NCCCC(=O)O", "note": "[GABA, γ-aminobutyric acid]", "values": [{"measurement": "EC50", "setting": "Q2′N ELIC [1]", "value": 1820, "unit": "µM"}, {"measurement": "EC50", "setting": "T6′A ELIC [2]; GABA EC50, T6′A ELIC", "value": 800, "unit": "µM"}, {"measurement": "EC50", "setting": "T6′A ELIC [2]; GABA pEC50, T6′A ELIC", "value": 851, "unit": "µM"}, {"measurement": "EC50", "setting": "T6′S ELIC [3]", "value": 1780, "unit": "µM"}, {"measurement": "EC50", "setting": "F16′A ELIC [4]", "value": 4900, "unit": "µM"}, {"measurement": "EC50", "setting": "F16′D ELIC [5]", "value": 2090, "unit": "µM"}, {"measurement": "EC50", "setting": "F16′E ELIC [6]; GABA EC50, F16′E ELIC", "value": 26000, "unit": "µM"}, {"measurement": "EC50", "setting": "F16′E ELIC [6]; GABA pEC50, F16′E ELIC", "value": 25700, "unit": "µM"}, {"measurement": "EC50", "setting": "F16′Q ELIC", "value": 7760, "unit": "µM"}, {"measurement": "EC50", "setting": "F16′L ELIC; GABA EC50, F16′L ELIC", "value": 51000, "unit": "µM"}, {"measurement": "EC50", "setting": "F16′L ELIC; GABA pEC50, F16′L ELIC", "value": 51300, "unit": "µM"}, {"measurement": "EC50", "setting": "F16′S ELIC [7]", "value": 7100, "unit": "µM"}, {"measurement": "EC50", "setting": "F16′T ELIC [8]; GABA EC50, F16′T ELIC", "value": 11000, "unit": "µM"}, {"measurement": "EC50", "setting": "F16′T ELIC [8]; GABA pEC50, F16′T ELIC", "value": 11500, "unit": "µM"}, {"measurement": "EC50", "setting": "F16′W ELIC [9]", "value": 2290, "unit": "µM"}, {"measurement": "EC50", "setting": "F16′Y ELIC", "value": 7500, "unit": "µM"}, {"measurement": "EC50", "setting": "F16′S/T6′S ELIC", "value": 6400, "unit": "µM"}]}
{"compound": "C=C(C)[C@@H]1[C@H]2OC(=O)[C@@H]1[C@]1(O)C[C@H]3O[C@]34C(=O)O[C@H]2[C@]14C", "note": "[PXN, Picrotoxinin]", "values": [{"measurement": "IC50", "setting": "Q2′N ELIC [10]", "value": 44, "unit": "µM"}, {"measurement": "IC50", "setting": "T6′A ELIC [11]", "value": 95, "unit": "µM"}, {"measurement": "IC50", "setting": "T6′S ELIC [12]", "value": 68, "unit": "µM"}, {"measurement": "IC50", "setting": "F16′A ELIC [13]; IC50, F16′A ELIC", "value": 16, "unit": "µM"}, {"measurement": "IC50", "setting": "F16′A ELIC [13]; pIC50, F16′A ELIC", "value": 16.6, "unit": "µM"}, {"measurement": "IC50", "setting": "F16′D ELIC [14]", "value": 9.4, "unit": "µM"}, {"measurement": "IC50", "setting": "F16′W ELIC [15]", "value": 52, "unit": "µM"}, {"measurement": "IC50", "setting": "F16′S ELIC [16]", "value": 4.5, "unit": "µM"}, {"measurement": "IC50", "setting": "F16′T ELIC [17]", "value": 7.2, "unit": "µM"}, {"measurement": "IC50", "setting": "F16′E ELIC [18]", "value": 26.9, "unit": "µM"}, {"measurement": "IC50", "setting": "T6′S/F16′S ELIC; IC50, T6′S/F16′S ELIC", "value": 44, "unit": "µM"}]}
{"compound": "CCCC(C(=O)OCCN(CC)CC)(c1ccccc1)c1ccccc1", "note": "[proadifen]", "values": [{"measurement": "IC50", "setting": "T6′S ELIC [12]; T6′S ELIC, inhibition measured at the GABA EC50, read-out: pIC50 (converted)", "value": 2.57, "unit": "µM"}, {"measurement": "IC50", "setting": "F16′S ELIC [16]; F16′S ELIC, inhibition measured at the GABA EC50, read-out: IC50", "value": 5.1, "unit": "µM"}, {"measurement": "IC50", "setting": "T6′S/F16′S ELIC; T6′S/F16′S ELIC, read-out: IC50", "value": 0.9, "unit": "µM"}, {"measurement": "IC50", "setting": "T6′S/F16′S ELIC; T6′S/F16′S ELIC, read-out: pIC50 (converted)", "value": 0.933, "unit": "µM"}]}
